Assay results reported in patent publication EP0560274B1, “Antiherpes peptide derivatives having a ureido N-terminus” (priority 1992, dated 1993).
*1 amine or outer side, *2 acyl side, *3 side chain or, on linkers, in order; H or OH if unused. Where a SMILES comes first, the peptide text is derived from it. [ ]: non-standard residue; d: D form. The star is where a group is joined. Gly(1-adamantyl) = N[C@H](C(=O)O)C12CC3CC(CC(C3)C1)C2; Asp(3,3-(CH2)4) = N[C@H](C(=O)O)C1(C(=O)O)CCCC1; tBuAla = CC(C)(C)C[C@H](N)C(=O)O; Tle = CC(C)(C)[C@H](N)C(=O)O; NH(3-pentyl) = CCC(CC)N*; Pyrrolidide = C1CCN(*)C1; CO = O=C([*:1])[*:2]; X1 = CCCC1(N*)CCCC1; X3 = CCCC(C)(C)N*; X4 = CCCC(CCC)N*

These compounds were tested on Herpes Simplex Virus (HSV-2). Conditions: 29 h.
Type: cell-based
Description: BHK-21/C13 cells (ATCC CCL 10) are incubated for two days in 150 cm^2 T-flasks (1.5 x 10^6 cells/flask) with alpha-MEM medium (Gibco Canada Inc., Burlington, Ontario, Canada) supplemented with 8% (v/v) fetal bovine serum (FBS, Gibco Canada Inc.). The cells are trypsinized and then transferred to fresh media in a 24 well plate to give 2.5 x 10^5 cells in 750 µL of media per well. The cells are incubated at 37° for a period of 6 h to allow them to adhere to the plate. Thereafter, the cells are washed once with 500 µL of alpha-MEM supplemented with 0.5% (v/v) FBS and then incubated with 750 µL of the same media (low serum) for 3 days. After this period of serum starvation, the low serum medium is removed and the cells are incubated in 500 µL of BBMT for 2 to 3 hours. {BBMT medium is described by P. Brazeau et al., Proc. Natl. Acad. Sci. USA, 79, 7909 (1982).} Thereafter, the cells are infected with HSV-2 (multiplicity of infection = 0.02 PFU/cell) in 100 µL of BBMT medium. (Note: The HSV-2 used was strain HG-52, see Y. Langelier and G. Buttin, J. Gen. Virol., 57, 21 (1981); the virus was stored at -80°.) Following 1 h of virus adsorption at 37°, the media is removed and the cells are washed with BBMT (3 X 250 µL). The cells in each well are incubated with or without (control) appropriate concentrations of the test agent dissolved in 200 µL of BBMT medium. After 29 h of incubation at 37°, the infected cells are harvested by first freezing the plate at -80°, followed by thawing. The cells in each well are scraped off the surface of the well with the help of the melting ice fragments. After complete thawing, the cell suspensions are collected and each well is rinsed with 150 µL of BBMT medium. The viral sample (suspension plus washing) is sonicated gently for 4 min at 4°. Cell debris are removed by centrifugation (1000 times gravity for 10 minutes at 4°). The supernatant is collected and stored at -80° until determination of viral titer.
Viral titration was performed by a modification of the colorimetric assay method of M. Langlois et al., Journal of Biological Standardization, 14, 201 (1986).
More specifically, in a similar manner as described above, BHK-21/C13 cells are trypsinized and transferred to fresh media in a 96 well microtiter plate to give 20,000 cells in 100 µL of media per well. The cells in the prepared plate are incubated at 37° for, 2 h. During that time, the viral sample is thawed and sonicated gently for 15 seconds, and log dilutions of the sample are prepared (1/5 sequential: 50 µL of the sample plus 200 µL of BBMT medium, sequential dilutions being done with a multichannel pipette.
On completion of the above 2 hour incubation of the BHK-21/C13 cells, the media is replaced with alpha-MEM medium supplemented with 3% (v/v) FBS. The cells are now ready to be infected with the various sample dilutions of virus. Aliquots (50 µL) of the various dilutions are transferred into the appropriate wells of the plate. The resulting infected cells are incubated for 2 days at 37°. Then 50 µL of a 0.15% (v/v) solution of neutral red dye in Hank's Balanced Salt Solution (pH 7.3, Gibco Canada Inc.) is added to each well. The prepared plate is incubated for 45 min at 37°. Medium from each well is then aspirated and the cells are washed once with 200 µL of Hank's Balanced Salt Solution. After the wash, the dye is released from the cells by the addition of 100 µL of a 1:1 mixture of 0.1 M Sorensen's citrate buffer (pH 4.2) and ethanol. {Sorensen's citrate buffer is prepared as follows: Firstly, a 0.1 M disodium citrate solution is prepared by dissolving citric acid monohydrate (21 g) in 1 N aqueous NaOH (200 mL) and adding sufficient filtered H2O to make 1 L. Secondly, the 0.1 M disodium citrate solution (61.2 mL) is mixed with 0.1 N aqueous HCl (38.8 mL) and the pH of the resulting solution is adjusted to 4.2 if necessary.} The mixture in the wells is subjected to a gentle vortex action to ensure proper mixing.
Compound `CCCC(CCC)NC(=O)N[C@H](C(=O)N[C@@H](CC(=O)C1CCCCC1)C(=O)N[C@H](C(=O)NCC(C)(C)C)C1(C(=O)O)CCCC1)C(C)(C)C` [Pr2CHNHC(O)-Tbg-NHCH(2-cyclohexyl-2-oxoethyl)C(O)-Asp(cyPn)-NHCH2CMe3] has an EC50 of 140 µM.
With `CCC(CC)NC(=O)N[C@H](C(=O)N[C@@H](CC(=O)N1CCCC1)C(=O)N[C@H](C(=O)N[C@@H](CC(C)C)C(=O)O)[C@H](C(=O)O)C(C)C)C(C)(C)C` [Et2CHNHC(O)-Tbg-Asp(pyrrolidino)-Asp{(R)-iPr}-Leu-OH] the EC50 was 300 µM.
Work on `CCCC(CC)(CCC)NC(=O)N[C@H](C(=O)N[C@@H](CC(=O)N1CCCC1)C(=O)N[C@H](C(=O)N[C@H](CC)C(C)(C)C)C1(C(=O)O)CCCC1)C(C)(C)C` [EtPr2CNHC(O)-Tbg-Asp(pyrrolidino)-Asp(cyPn)NH-(R)-CH(Et)CMe3] yielded an EC50 of 7 µM.
With `CCCC(CCC)NC(=O)N[C@H](C(=O)N[C@@H](CC(=O)N1CCCC1)C(=O)N[C@H](C(=O)NCC(C)(C)C)C1(C(=O)O)CCCC1)C(C)(C)C` [Pr2CHNHC(O)-Tbg-Asp(pyrrolidino)-Asp(cyPn)-NHCH2CMe3] the EC50 was 150 µM.
Compound `CCC(CC)NC(=O)N[C@H](C(=O)N[C@@H](CC(=O)N1CCCC1)C(=O)N[C@H](C(=O)NCC(C)(C)C)C1(C(=O)O)CCCC1)C(C)(C)C` [Et2CHNHC(O)-Tbg-Asp(pyrrolidino)-Asp(cyPn)-NHCH2CMe3] has an EC50 of 270 µM.
In the case of `CCCC(CCC)NC(=O)N[C@H](C(=O)N[C@@H](CC(=O)N1CCCC1)C(=O)N[C@H](C(=O)N[C@H](CO)CC(C)(C)C)C1(C(=O)O)CCCC1)C(C)(C)O` [Pr2CHNHC(O)-NH-(S)-CH{C(CH3)2OH}-C(O)-Asp(pyrrolidino)-Asp(cyPn) γMeLeucinol], the EC50 is reported as 210 µM.
For `CCC(CC)NC(=O)N[C@H](C(=O)N[C@@H](CC(=O)N1CCCC1)C(=O)N[C@H](C(=O)N[C@@H](CC(C)(C)C)C(=O)O)[C@H](C(=O)O)C(C)C)C(C)(C)C` [Et2CHNHC(O)-Tbg-Asp(pyrrolidino)-Asp{(R)-iPr}-γMeLeu-OH], the EC50 was 190 µM.
`CCCC(CCC)NC(=O)N[C@H](C(=O)N[C@@H](CC(=O)N1CCCC1)C(=O)N[C@H](C(=O)NCC(C)(C)CC)C1(C(=O)O)CCCC1)C(C)(C)C` [Pr2CHNHC(O)-Tbg-Asp(pyrrolidino)-Asp(cyPn)-NHCH2CMe2Et] gave an EC50 of 106 µM.
For `CCC(CC)NC(=O)N[C@H](C(=O)N[C@@H](CC(=O)N1CCCC1)C(=O)N[C@H](C(=O)N[C@@H](CC(C)(C)C)C(=O)O)C1(C(=O)O)CCCC1)C12CC3CC(CC(C3)C1)C2` [Et2CHNHC(O)-NH-(S)-CH(adamantyl)-C(O)-Asp(pyrrolidino)-Asp(cyPn)-γMeLeu-OH] ({NH(3-pentyl)-CO}-[Gly(1-adamantyl)]D(Pyrrolidide)[Asp(3,3-(CH2)4)][tBuAla]-OH), the EC50 was 170 µM.
With `CCCC(CCC)NC(=O)N[C@H](C(=O)N[C@@H](CC(=O)C1CCC1)C(=O)N[C@H](C(=O)NCC(C)(C)C)C1(C(=O)O)CCCC1)C(C)(C)C` [Pr2CHNHC(O)-Tbg-NH-(S)-CH(2-cyclobutyl-2-oxoethyl)C(O)-Asp(cyPn)-NHCH2CMe3] the EC50 was 160 µM.
For `CC(C)NC(=O)N[C@H](C(=O)N[C@@H](CC(=O)N1CCCC1)C(=O)N[C@H](C(=O)N[C@H](CO)CC(C)(C)C)C1(C(=O)O)CCCC1)C(C)(C)C` [Me2CHNHC(O)-Tbg-Asp(pyrrolidino)-Asp(cyPn)-γMeLeucinol], the EC50 was 700 µM.
In the case of `CCCC(C)(CCC)NC(=O)N[C@H](C(=O)N[C@@H](CC(=O)N1CCCC1)C(=O)N[C@H](C(=O)NCC(C)(C)C)C1(C(=O)O)CCCC1)C(C)(C)C` [MePr2CNHC(O)-Tbg-Asp(pyrrolidino)-Asp(cyPn)-NHCH2CMe3], the EC50 is reported as 84 µM.
With `CCCC(CCC)NC(=O)N[C@H](C(=O)N[C@@H](CC(=O)N1CCCC1)C(=O)N[C@H](C(=O)N[C@@H](CC(C)(C)C)C(=O)O)C1(C(=O)O)CCCC1)C(C)(C)C` [Pr2CHNHC(O)-Tbg-Asp(pyrrolidino)-Asp(cyPn)-γMeLeu-OH] ({X4-CO}-[Tle]D(Pyrrolidide)[Asp(3,3-(CH2)4)][tBuAla]-OH) the EC50 was 80 µM.
With `CCCC(CCC)NC(=O)N[C@H](C(=O)N[C@@H](CC(=O)N1CCCC1)C(=O)N[C@H](C(=O)N[C@H](CO)CC(C)(C)C)C1(C(=O)O)CCCC1)C(C)(C)S` [Pr2CHNHC(O)-NH-(R)-CH{C(CH3)2SH}CO-Asp(pyrrolidino)-Asp(cyPn)-γMeLeucinol] the EC50 was 290 µM.
For `CCCC(CCC)NC(=O)N[C@H](C(=O)N[C@@H](CC(=O)N1CCCC1)C(=O)N[C@H](C(=O)N[C@H](C)C(C)(C)C)C1(C(=O)O)CCCC1)C(C)(C)C` [Pr2CHNHC(O)-Tbg-Asp(pyrrolidino)-Asp(cyPn)-NHCH-(R)-CH(Me)CMe3], the EC50 was 55 µM.
With `CCC(CC)NC(=O)N[C@H](C(=O)N[C@@H](CC(=O)N1CCCC1)C(=O)N[C@H](C(=O)N[C@H](CO)CC(C)(C)C)[C@H](C(=O)O)C(C)C)C(C)(C)C` [Et2CHNHC(O)-Tbg-Asp(pyrrolidino)-Asp{(R)-iPr}-γMeLeucinol] the EC50 was 140 µM.
For `CCC(CC)NC(=O)N[C@H](C(=O)N[C@@H](CC(=O)N1CCCC1)C(=O)N[C@H](C(=O)NCCC(C)(C)C)C1(C(=O)O)CCCC1)C(C)(C)C` [Et2CHNHC(O)-Tbg-Asp(pyrrolidino)-Asp(cyPn)-NHCH2CH2CMe3], the EC50 was 350 µM.
`CCCC1(NC(=O)N[C@H](C(=O)N[C@@H](CC(=O)N2CCCC2)C(=O)N[C@H](C(=O)N[C@@H](CC(C)(C)C)C(=O)O)C2(C(=O)O)CCCC2)C(C)(C)C)CCCC1` [(1-propylcyclopentyl)NHCO-Tbg-Asp-(pyrrolidino)-Asp(cyPn)-γMeLeu-OH] ({X1-CO}-[Tle]D(Pyrrolidide)[Asp(3,3-(CH2)4)][tBuAla]-OH) showed an EC50 of 190 µM.
`CCCC1(NC(=O)N[C@H](C(=O)N[C@@H](CC(=O)N2CCCC2)C(=O)N[C@H](C(=O)N[C@@H](CC(C)(C)C)C(=O)OCC)C2(C(=O)O)CCCC2)C(C)(C)C)CCCC1` [(1-propylcyclopentyl)-NHC(O)-Tbg-Asp(pyrrolidino)-Asp(cyPn)-γMeLeu-OEt] ({X1-CO}-[Tle]D(Pyrrolidide)[Asp(3,3-(CH2)4)][tBuAla]-OEt) gave an EC50 of 45 µM.
`CCC(CC)NC(=O)N[C@H](C(=O)N[C@@H](CC(=O)N1CCCC1)C(=O)N[C@H](C(=O)N[C@H](CO)CC(C)(C)C)C1(C(=O)O)CCCC1)C12CC3CC(CC(C3)C1)C2` [Et2CHNHC(O)-NH-(S)-CH(adamantyl)-C(O)-Asp(pyrrolidino)-Asp(cyPn)-γMeLeucinol] was tested, and the EC50 was 170 µM.
Compound `CCC(CC)NC(=O)N[C@H](C(=O)N[C@@H](CC(=O)N1CCCC1)C(=O)N[C@H](C(=O)N[C@@H](CC(C)(C)C)C(=O)O)C1(C(=O)O)CCCC1)C(C)(C)C` [Et2CHNHC(O)-Tbg-Asp(pyrrolidino)-Asp(cyPn)-γMeLeu-OH] ({NH(3-pentyl)-CO}-[Tle]D(Pyrrolidide)[Asp(3,3-(CH2)4)][tBuAla]-OH) has an EC50 of 180 µM.
Work on `CCCC(C)(C)NC(=O)N[C@H](C(=O)N[C@@H](CC(=O)N1CCCC1)C(=O)N[C@H](C(=O)N[C@@H](CC(C)(C)C)C(=O)O)C1(C(=O)O)CCCC1)C(C)(C)C` [PrMe2CNHC(O)-Tbg-Asp(pyrrolidino)-Asp(cyPn)-γMeLeu-OH] ({X3-CO}-[Tle]D(Pyrrolidide)[Asp(3,3-(CH2)4)][tBuAla]-OH) yielded an EC50 of 110 µM.
`CCCC(CCC)NC(=O)N[C@H](C(=O)N[C@@H](CC(=O)N1CCCC1)C(=O)N[C@H](C(=O)N[C@H](CO)CC(C)(C)C)C1(C(=O)O)CCCC1)C(C)(C)C(=O)O` [Pr2CHNHC(O)-Asp(diMe)-Asp(pyrrolidino)-Asp(cyPn)-γMeLeucinol] gave an EC50 of 170 µM.
